Literature values as cited in US11359044B2, “Preparation and application of novel multifunctional nanocomposite material with new photosensitizer” (priority 2018, dated 2022).

Details: in DMSO, used as control

For `[Zn+2].c1ccc2c(c1)-c1nc-2nc2[n-]c(nc3nc([n-]c4nc(n1)-c1ccccc1-4)-c1ccccc1-3)c1ccccc21` [ZnPc, zinc phthalocyanine], which singlet oxygen yield is on record?
The singlet oxygen yield was 0.67.
